Read-outs that look alike come from different tables or passages of the source.
What was measured:
Type in all cases: cell-based
[1] = target: T1, pERK1/2 (Thr202/Tyr204), NCI-1H441 (KRAS G12V) (Homo sapiens, UniProt P01116, G12V); experiment: Assay of intracellular pERK1/2 (Thr202/Tyr204) phosphorylation in NCI-H441 cells (KRAS G12V)
T1 construct: pERK1/2 HTRF read-out
Summary of the method: (§1)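 Cells (10000-12000/well) exposed to 3-fold compound dilutions for 2 days at 37 °C, then lysed; pERK1/2 (Thr202/Tyr204) measured by HTRF with d2 and cryptate antibodies, 665/615 nm ratio.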

[2] = target: T2, pERK1/2 (Thr202/Tyr204), PANC-1 (KRAS G121D) (Homo sapiens, UniProt P01116, G12D); experiment: Assay of intracellular pERK1/2 (Thr202/Tyr204) phosphorylation in PANC-1 cells (KRAS G12D)
T2 construct: pERK1/2 HTRF read-out
T2 sequence (P01116 1-188 isoform P01116-2 G12D): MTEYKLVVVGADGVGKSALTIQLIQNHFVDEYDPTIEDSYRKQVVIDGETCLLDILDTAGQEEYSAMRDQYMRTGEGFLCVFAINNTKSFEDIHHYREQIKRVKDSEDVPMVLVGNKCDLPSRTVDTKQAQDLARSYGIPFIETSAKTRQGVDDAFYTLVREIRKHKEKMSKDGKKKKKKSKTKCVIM
Summary of the method: as §1

[3] = target: T3, pERK1/2 (Thr202/Tyr204), NCI-1H358 (KRAS G12C) (Homo sapiens, UniProt P01116, G12C); experiment: Assay of intracellular pERK1/2 (Thr202/Tyr204) phosphorylation in NCI-H358 cells (KRAS G12C)
T3 construct: pERK1/2 HTRF read-out
T3 sequence (P01116 1-188 isoform P01116-2 G12C): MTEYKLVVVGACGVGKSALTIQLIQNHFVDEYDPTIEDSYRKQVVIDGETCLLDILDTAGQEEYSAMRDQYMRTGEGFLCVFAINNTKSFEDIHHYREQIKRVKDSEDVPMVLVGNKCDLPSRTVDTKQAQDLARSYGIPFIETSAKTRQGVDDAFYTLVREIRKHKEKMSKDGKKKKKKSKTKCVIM
Summary of the method: as §1

[4] = pERK1/2, 2 days, read-out: NCI-H441 (KRAS G12V) IC50
[5] = pERK1/2, 2 days, read-out: PANC-1 (KRAS G12D) IC50
[6] = pERK1/2, 2 days, read-out: NCI-H358 (KRAS G12C) IC50

T1 sequence (P01116 1-188 isoform P01116-2 G12V): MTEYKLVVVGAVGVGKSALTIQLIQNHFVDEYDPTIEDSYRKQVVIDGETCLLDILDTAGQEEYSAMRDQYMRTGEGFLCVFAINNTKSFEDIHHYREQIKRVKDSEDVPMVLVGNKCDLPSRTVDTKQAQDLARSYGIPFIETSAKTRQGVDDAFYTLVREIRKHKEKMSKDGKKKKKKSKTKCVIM

SMILES | IC50 [1, 4] [nM] | IC50 [2, 5] [nM] | IC50 [3, 6] [nM] | IC50 ([1]; read-out: NCI-H441 (KRAS G12V) IC50, pERK1/2, 2 days) [nM] | IC50 ([2]; read-out: PANC-1 (KRAS G12D) IC50, pERK1/2, 2 days) [nM] | IC50 ([3]; read-out: NCI-H358 (KRAS G12C) IC50, pERK1/2, 2 days) [nM]
[2H]C1([2H])Oc2nc(-c3cc(N)c(F)c(Cl)c3C(F)(F)F)c(F)c3nc(OC[C@@]45CCCN4C[C@H](F)C5)nc(c23)N(C(C)c2cccnc2N)C1([2H])[2H] (single isomer, unassigned) [Compound 207, 3-((R or S)-1-(5-(5-amino-3-chloro-4-fluoro-2-(trifluoromethyl)phenyl)-4-fluoro-2-(((2R,7aS)-2-fluorotetrahydro-1H-pyrrolizin-7a(5H)-yl)methoxy)-8,9-dihydro-10H-7-oxa-1,3,6,10-tetraazacyclohepta[de]naphthalen-10-yl-8,8,9,9-d4)ethyl)pyridin-2-amine] | 33 | > 100 | 9 | – | – | –
Cc1cc(N)cc(-c2nc3c4c(nc(OC[C@@H]5CCCN5C)nc4c2F)N(C(C)c2cccnc2N)CCO3)c1C(F)(F)F (single isomer, unassigned) [Compound 77, 3-((R or S)-1-(5-(5-amino-3-methyl-2-(trifluoromethyl)phenyl)-4-fluoro-2-(((S)-1-methylpyrrolidin-2-yl)methoxy)-8,9-dihydro-10H-7-oxa-1,3,6,10-tetraazacyclohepta[de]naphthalen-10-yl)ethyl)pyridin-2-amine] | 37 | > 100 | 38 | – | – | –
Cc1c(F)c(N)cc(-c2nc3c4c(nc(OCC56CC(F)CN5CC(F)C6)nc4c2F)N(C(C)c2cccnc2N)CCO3)c1C(F)(F)F (single isomer, unassigned; diastereomer 1) [Compound 241, (*)3-(1-(5-(5-amino-4-fluoro-3-methyl-2-(trifluoromethyl)phenyl)-2-(((2R or 2S,6R or 6S)-2,6-difluorotetrahydro-1H-pyrrolizin-7a(5H)-yl)methoxy)-4-fluoro-8,9-dihydro-10H-7-oxa-1,3,6,10-tetraazacyclohepta[de]naphthalen-10-yl)ethyl)pyridin-2-amine (diastereomer 1)] | 0.9 | 13 | 0.2 | – | – | –
CC(c1cccnc1N)N1CCOc2nc(-c3cc(N)c(F)cc3C(F)(F)F)c(F)c3nc(OC[C@@]45CCCN4C[C@H](F)C5)nc1c23 (stereo partly drawn) [Compound 135] | 3 | 30 | 2 | – | – | –
CC(c1cccnc1N)N1c2nc(OC[C@@]34CCCN3C[C@H](F)C4)nc3c(F)c(-c4c(C(F)(F)F)c(Cl)cc5[nH]ncc45)nc(c23)OC[C@@H]1C (single isomer, unassigned) [Compound 330] | 0.5 | 0.3 | 0.4 | – | – | –
[2H]C1([2H])CC[C@@]2(C([2H])([2H])Oc3nc4c5c(nc(-c6cc(N)c(F)c(C)c6C(F)(F)F)c(F)c5n3)OCCN4C(C)c3cccnc3N)C[C@@H](F)CN12 (single isomer, unassigned) [Compound 124, 3-((R or S)-1-(5-(5-amino-4-fluoro-3-methyl-2-(trifluoromethyl)phenyl)-4-fluoro-2-(((2R,7aS)-2-fluorotetrahydro-1H-pyrrolizin-7a(5H)-yl-5,5-d2)methoxy-d2)-8,9-dihydro-10H-7-oxa-1,3,6,10-tetraazacyclohepta[de]naphthalen-10-yl)ethyl)pyridin-2-amine] | 0.3 | 1 | 0.1 | – | – | –
CC(c1cccnc1N)N1CCOc2nc(-c3cc(O)cc(Cl)c3C3CC3)c(F)c3nc(OC[C@@H]4CC(F)(F)CN4C)nc1c23 (single isomer, unassigned) [Compound 56, 3-(10-((R or S)-1-(2-aminopyridin-3-yl)ethyl)-2-(((S)-4,4-difluoro-1-methylpyrrolidin-2-yl)methoxy)-4-fluoro-9,10-dihydro-8H-7-oxa-1,3,6,10-tetraazacyclohepta[de]naphthalen-5-yl)-5-chloro-4-cyclopropylphenol] | 5 | 134 | 3 | – | – | –
[2H]C1([2H])Oc2nc(-c3cc(N)c(F)c(Cl)c3C(F)(F)F)c(F)c3nc(OC[C@@]45CCCN4C[C@H](F)C5)nc(c23)N(C(C)c2cccnc2N)C1([2H])[2H] (single isomer, unassigned) [Compound 206, 3-((R or S)-1-(5-(5-amino-3-chloro-4-fluoro-2-(trifluoromethyl)phenyl)-4-fluoro-2-(((2R,7aS)-2-fluorotetrahydro-1H-pyrrolizin-7a(5H)-yl)methoxy)-8,9-dihydro-10H-7-oxa-1,3,6,10-tetraazacyclohepta[de]naphthalen-10-yl-8,8,9,9-d4)ethyl)pyridin-2-amine] | 0.3 | 0.8 | 0.2 | – | – | –
[2H]C([2H])(Oc1nc2c3c(nc(-c4cc(N)ccc4C(F)(F)F)c(F)c3n1)OCCN2C(C)c1cccnc1N)[C@@H]1C[C@@H](F)CN1C([2H])([2H])[2H] (stereo partly drawn) [Compound 126] | 31 | > 100 | 7 | – | – | –
CC(c1cccnc1N)N1CCOc2nc(-c3cc(O)cc(Cl)c3C3CC3)c(F)c3nc(OC[C@@H]4CCN4CC(F)F)nc1c23 (single isomer, unassigned) [Compound 21, 3-(10-((R or S)-1-(2-aminopyridin-3-yl)ethyl)-2-(((S)-1-(2,2-difluoroethyl)azetidin-2-yl)methoxy)-4-fluoro-9,10-dihydro-8H-7-oxa-1,3,6,10-tetraazacyclohepta[de]naphthalen-5-yl)-5-chloro-4-cyclopropylphenol] | 3 | 82 | 0.5 | – | – | –
CC(c1cccnc1N)N1CCOc2nc(-c3cc(O)cc4ccc(F)c(F)c34)c(F)c3nc(OC[C@@]45CCCN4C[C@H](F)C5)nc1c23 (stereo partly drawn) [Compound 1, 4-(10-(1-(2-Aminopyridin-3-yl)ethyl)-4-fluoro-2-(((2R,7aS)-2-fluorotetrahydro-1H-pyrrolizin-7a(5H)-yl)methoxy)-9,10-dihydro-8H-7-oxa-1,3,6,10-tetraazacyclohepta[de]naphthalen-5-yl)-5,6-difluoronaphthalen-2-ol] | – | – | – | 3 | 6 | 0.7
COc1ccc(C(F)(F)F)cc1-c1nc2c3c(nc(OC[C@@]45CCCN4C[C@H](F)C5)nc3c1F)N(C(C)c1cccnc1N)CCO2 (stereo partly drawn) [Compound 47] | > 1000 | 347 | > 1000 | – | – | –
CC(c1cccnc1N)N1CCOc2nc(-c3ccc(F)c4sc(N)nc34)c(F)c3nc(OC[C@@H]4CCN4CC(F)F)nc1c23 (stereo partly drawn) [Compound 19] | 66 | > 1000 | 15 | – | – | –
CC(c1cccnc1N)N1CCOc2nc(-c3cc(O)cc4ccc(F)c(F)c34)c(F)c3ncnc1c23 (single isomer, unassigned) [Compound 30, (R or S)-4-(10-(1-(2-aminopyridin-3-yl)ethyl)-4-fluoro-9,10-dihydro-8H-7-oxa-1,3,6,10-tetraazacyclohepta[de]naphthalen-5-yl)-5,6-difluoronaphthalen-2-ol] | 64 | > 1000 | 31 | – | – | –
CCc1c(F)ccc2cc(O)cc(-c3nc4c5c(nc(OC[C@@]67CCCN6C[C@H](F)C7)nc5c3F)N(C(C)c3ccccc3N)[C@@H](C)CO4)c12 (stereo partly drawn) [Compound 298] | > 100 | > 100 | > 100 | – | – | –
CC(c1cccnc1N)N1CCOc2nc(-c3cc(O)cc4ccc(F)c(F)c34)c(F)c3nc(OC[C@@]45CCCN4C/C(=C\F)C5)nc1c23 (stereo partly drawn) [Compound 11] | 1 | 4 | 1 | – | – | –

From patent US20260356851A1, “TRICYCLIC COMPOUNDS AND USES THEREOF” (HUTCHMED LIMITED, priority 2023, published 2026)
